Source: US10160747B2, “Compounds and methods for kinase modulation, and indications therefor” (Plexxikon Inc., priority 2016, dated 2018)

Assays:
FLT3-D835Y = target: T1, FLT3-D835Y (Homo sapiens, UniProt P36888, D835Y); assay: FLT3-D835Y recombinant enzyme kinase assay (AlphaScreen); assay type: biochemical; conditions: 8 pt, GMean
T1 construct: purchased Invitrogen PV3967
T1 sequence (P36888 27-993 D835Y): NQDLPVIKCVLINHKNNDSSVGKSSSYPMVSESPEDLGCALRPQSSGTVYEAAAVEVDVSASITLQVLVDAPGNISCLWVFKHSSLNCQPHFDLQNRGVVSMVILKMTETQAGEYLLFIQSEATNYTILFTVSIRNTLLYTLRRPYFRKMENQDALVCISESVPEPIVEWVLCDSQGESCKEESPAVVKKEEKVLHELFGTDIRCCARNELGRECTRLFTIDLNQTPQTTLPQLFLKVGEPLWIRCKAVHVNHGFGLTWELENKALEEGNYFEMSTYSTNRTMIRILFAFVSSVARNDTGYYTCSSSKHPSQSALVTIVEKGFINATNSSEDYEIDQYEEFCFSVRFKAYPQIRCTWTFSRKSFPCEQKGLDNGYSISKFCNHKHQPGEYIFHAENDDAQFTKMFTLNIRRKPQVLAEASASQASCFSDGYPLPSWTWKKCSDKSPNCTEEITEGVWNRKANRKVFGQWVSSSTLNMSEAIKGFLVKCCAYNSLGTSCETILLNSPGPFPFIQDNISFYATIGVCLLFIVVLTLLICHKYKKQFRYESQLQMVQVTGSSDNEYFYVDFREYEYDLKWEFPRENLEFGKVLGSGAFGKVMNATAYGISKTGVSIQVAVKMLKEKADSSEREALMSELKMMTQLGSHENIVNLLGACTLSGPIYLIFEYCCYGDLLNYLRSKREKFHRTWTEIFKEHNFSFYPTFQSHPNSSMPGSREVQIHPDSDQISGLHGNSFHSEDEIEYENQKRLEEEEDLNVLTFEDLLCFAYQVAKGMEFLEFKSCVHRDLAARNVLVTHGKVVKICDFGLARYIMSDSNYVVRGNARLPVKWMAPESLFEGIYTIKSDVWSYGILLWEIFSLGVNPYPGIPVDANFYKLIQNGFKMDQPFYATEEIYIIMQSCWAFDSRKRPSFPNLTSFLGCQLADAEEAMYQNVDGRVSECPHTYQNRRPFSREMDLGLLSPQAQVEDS
Protocol: (§1) In order to determine the effect of compounds on FLT3 catalytic activity, kinase assays using recombinant enzymes and AlphaScreen® technology have been established. The catalytic activity of c-kit activity was also measured to determine selectivity of the compounds. When the kinases are catalytically active, they phosphorylate a biotinylated peptide substrate on tyrosine residues. Using AlphaScreen® technology, the ability of the compounds to affect the catalytic activity of the kinases can be measured quantitatively. The peptide substrate is immobilized by the AlphaScreen® Streptavidin Donor beads and, upon phosphorylation by a tyrosine kinase, can bind to AlphaScreen® Anti-Phosphotyrosine (PY20) Acceptor beads. Upon excitation of these beads with laser light at 680 nm, singlet oxygen is produced. This singlet oxygen is rapidly quenched, unless the AlphaScreen® Anti-Phosphotyrosine (PY20) Acceptor beads are in close proximity, in which case a proximity signal can be measured at 580 nm. In the presence of catalytic activity, there is a very strong proximity signal. Selective kinase inhibitors affect a decrease in this proximity signal through a decrease in tyrosine phosphorylation of the peptide substrate.
(§2) The assay was performed as summarized below.
(§3) Poly (Glu4-Tyr) Peptide, biotin conjugate [Biotin-GG(EEEEY)10EE] (SEQ ID NO: 4)
(§4) Final concentration=30 nM
(§5) Adenosine Triphosphate (ATP)
(§6) Final concentration for IC50 determination=10 μM (FLT3-D835Y or FLT3-ITD) or 100 μM (c-KIT)
(§7) AlphaScreen® Phosphotyrosine (PY20) Assay Kit
(§8) Final concentration=10 μg/mL
(§9) Dilute compounds in DMSO to 20× final concentration.
(§10) Add 1 μL of compound to each well of 384 well reaction plate (Perkin Elmer #6005359).
(§11) Mix enzyme and Poly (Glu4-Tyr) Peptide substrate at 1.33× final concentration in assay buffer.
(§12) Mix ATP at 5× final concentration in assay buffer.
(§13) Add 15 μL enzyme/substrate mixture to the reaction plate.
(§14) Add 4 μL of ATP to the reaction plate.
(§15) Mix Streptavidin Donor beads at 6× final concentration in Stop/Detection buffer.
(§16) Add 5 μL Streptavidin Donor beads to the reaction plate. Centrifuge 1 minute, shake to mix, and incubate at room temperature for 20 minutes.
(§17) Mix Anti-Phosphotyrosine (PY20) Acceptor beads at 6× final concentration in Stop/Detection buffer.
(§18) Add 5 μL Anti-Phosphotyrosine (PY20) beads to the reaction plate.
(§19) Centrifuge 1 minute, shake to mix, and incubate at room temperature for 60 minutes.
(§20) Read plate on Wallac EnVision™ 2103 Multilabel Reader.

FLT3-ITD = target: T2, FLT3-ITD (Homo sapiens, UniProt P36888); assay: FLT3-ITD recombinant enzyme kinase assay (AlphaScreen); assay type: biochemical; conditions: 8 pt; read-out: FLT3_ITD 8 pt: IC50
T2 sequence (P36888 1-993): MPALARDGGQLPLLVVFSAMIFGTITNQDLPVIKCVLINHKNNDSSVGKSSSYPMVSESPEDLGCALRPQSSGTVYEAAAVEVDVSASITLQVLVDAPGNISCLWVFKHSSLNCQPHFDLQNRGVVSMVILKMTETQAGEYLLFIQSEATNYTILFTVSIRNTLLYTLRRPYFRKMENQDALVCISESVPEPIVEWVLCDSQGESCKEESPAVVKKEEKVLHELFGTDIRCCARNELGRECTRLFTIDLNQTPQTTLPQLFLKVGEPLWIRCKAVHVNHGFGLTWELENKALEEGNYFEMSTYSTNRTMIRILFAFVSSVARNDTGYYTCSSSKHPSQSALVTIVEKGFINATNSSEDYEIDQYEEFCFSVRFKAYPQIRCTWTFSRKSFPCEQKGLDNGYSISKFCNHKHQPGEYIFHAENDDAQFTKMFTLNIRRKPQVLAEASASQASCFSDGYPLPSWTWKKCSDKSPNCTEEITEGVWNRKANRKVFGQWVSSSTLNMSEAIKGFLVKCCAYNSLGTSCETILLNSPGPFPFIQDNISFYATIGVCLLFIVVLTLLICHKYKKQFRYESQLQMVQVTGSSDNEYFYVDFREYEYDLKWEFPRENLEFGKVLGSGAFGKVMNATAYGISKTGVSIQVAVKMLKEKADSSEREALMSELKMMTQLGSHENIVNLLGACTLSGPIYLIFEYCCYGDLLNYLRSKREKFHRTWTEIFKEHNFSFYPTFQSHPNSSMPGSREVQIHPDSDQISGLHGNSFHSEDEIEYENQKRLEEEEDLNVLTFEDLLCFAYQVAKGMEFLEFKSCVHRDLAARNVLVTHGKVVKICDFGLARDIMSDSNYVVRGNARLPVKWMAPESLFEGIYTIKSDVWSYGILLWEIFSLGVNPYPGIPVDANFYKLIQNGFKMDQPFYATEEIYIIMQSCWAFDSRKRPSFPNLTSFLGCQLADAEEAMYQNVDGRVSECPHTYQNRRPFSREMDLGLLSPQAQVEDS
Protocol: as §1, §2, §3, §4, §5, §6, §7, §8, §9, §10, §11, §12, §13, §14, §15, §16, §17, §18, §19, §20

Compound | IC50 (FLT3-D835Y) | IC50 (FLT3-ITD)
Cc1ncc(NC(=O)Cc2ccc(-c3cnc(Nc4cn(C)cn4)nc3)cc2F)cc1C(F)(F)F [Compound P-0099, 2-[2-fluoro-4-[2-[(1-methylimidazol-4-yl)amino]pyrimidin-5-yl]phenyl]-N-[6-methyl-5-(trifluoromethyl)-3-pyridyl]acetamide] | 0.0001 to 10 µM | 0.0001 to 10 µM
Cn1cnc(Nc2ncc(-c3ccc(CC(=O)Nc4cnc(Cl)c(C(F)(F)F)c4)c(F)c3)cn2)c1 [Compound P-0100, N-[6-chloro-5-(trifluoromethyl)-3-pyridyl]-2-[2-fluoro-4-[2-[(1-methylimidazol-4-yl)amino]pyrimidin-5-yl]phenyl]acetamide] | 0.0001 to 10 µM | 0.0001 to 10 µM
COc1ncc(NC(=O)Cc2ccc(-c3cnc(Nc4cn(C)cn4)nc3)cc2F)cc1C(F)(F)F [Compound P-0101, 2-[2-fluoro-4-[2-[(1-methylimidazol-4-yl)amino]pyrimidin-5-yl]phenyl]-N-[6-methoxy-5-(trifluoromethyl)-3-pyridyl]acetamide] | 0.0001 to 10 µM | 0.0001 to 10 µM
Cn1cnc(Nc2ncc(-c3ccc(CC(=O)Nc4cc(C(C)(F)F)ccn4)c(F)c3)cn2)c1 [Compound P-0102, N-[4-(1,1-difluoroethyl)-2-pyridyl]-2-[2-fluoro-4-[2-[(1-methylimidazol-4-yl)amino]pyrimidin-5-yl]phenyl]acetamide] | 0.0001 to 10 µM | 0.0001 to 10 µM
Cn1cnc(Nc2ncc(-c3ccc(CC(=O)Nc4cncc(C(C)(F)F)c4)c(F)c3)cn2)c1 [Compound P-0103, N-[5-(1,1-difluoroethyl)-3-pyridyl]-2-[2-fluoro-4-[2-[(1-methylimidazol-4-yl)amino]pyrimidin-5-yl]phenyl]acetamide] | 0.0001 to 10 µM | 0.0001 to 10 µM
Cn1cc(Nc2ncc(-c3ccc(CC(=O)Nc4cnc(F)c(C(C)(F)F)c4)cc3)cn2)cn1 [Compound P-0104, N-[5-(1,1-difluoroethyl)-6-fluoro-3-pyridyl]-2-[4-[2-[(1-methylpyrazol-4-yl)amino]pyrimidin-5-yl]phenyl]acetamide] | 0.0001 to 10 µM | 0.0001 to 10 µM
Cn1cc(Nc2ncc(-c3ccc(CC(=O)Nc4cnc(F)c(C(C)(F)F)c4)c(F)c3)cn2)cn1 [Compound P-0105, N-[5-(1,1-difluoroethyl)-6-fluoro-3-pyridyl]-2-[2-fluoro-4-[2-[(1-methylpyrazol-4-yl)amino]pyrimidin-5-yl]phenyl]acetamide] | 0.0001 to 10 µM | 0.0001 to 10 µM
Cn1cc(Nc2ncc(-c3ccc(CC(=O)Nc4ccc(C(F)(F)F)cn4)c(F)c3)cn2)cn1 [Compound P-0106, 2-[2-fluoro-4-[2-[(1-methylpyrazol-4-yl)amino]pyrimidin-5-yl]phenyl]-N-[5-(trifluoromethyl)-2-pyridyl]acetamide] | 0.0001 to 10 µM | 0.0001 to 10 µM
Cn1cc(Nc2ncc(-c3ccc(CC(=O)Nc4cc(Cl)c(C5CC5)cn4)c(F)c3)cn2)cn1 [Compound P-0107, N-(4-chloro-5-cyclopropyl-2-pyridyl)-2-[2-fluoro-4-[2-[(1-methylpyrazol-4-yl)amino]pyrimidin-5-yl]phenyl]acetamide] | 0.0001 to 10 µM | 0.0001 to 10 µM
Cn1cc(Nc2ncc(-c3ccc(CC(=O)Nc4ccc(C(C)(C)C#N)nc4)c(F)c3)cn2)cn1 [Compound P-0108, N-[6-(1-cyano-1-methyl-ethyl)-3-pyridyl]-2-[2-fluoro-4-[2-[(1-methylpyrazol-4-yl)amino]pyrimidin-5-yl]phenyl]acetamide] | 0.0001 to 10 µM | 0.0001 to 10 µM
Cn1cc(Nc2ncc(-c3ccc(CC(=O)Nc4ccc(C(F)(F)F)cn4)cc3)cn2)cn1 [Compound P-0109, 2-[4-[2-[(1-methylpyrazol-4-yl)amino]pyrimidin-5-yl]phenyl]-N-[5-(trifluoromethyl)-2-pyridyl]acetamide] | 0.0001 to 10 µM | 0.0001 to 10 µM
Cn1cc(Nc2ncc(-c3ccc(CC(=O)Nc4ccc(C(F)(F)F)nc4)c(F)c3)cn2)cn1 [Compound P-0110, 2-[2-fluoro-4-[2-[(1-methylpyrazol-4-yl)amino]pyrimidin-5-yl]phenyl]-N-[6-(trifluoromethyl)-3-pyridyl]acetamide] | 0.0001 to 10 µM | 0.0001 to 10 µM
CCc1cncc(NC(=O)Cc2ccc(-c3cnc(Nc4cnn(C)c4)nc3)cc2F)c1 [Compound P-0111, N-(5-ethyl-3-pyridyl)-2-[2-fluoro-4-[2-[(1-methylpyrazol-4-yl)amino]pyrimidin-5-yl]phenyl]acetamide] | 0.0001 to 10 µM | 0.0001 to 10 µM
Cn1cc(Nc2ncc(-c3ccc(CC(=O)Nc4cccnc4)cc3)cn2)cn1 [Compound P-0131, 2-[4-[2-[(1-methylpyrazol-4-yl)amino]pyrimidin-5-yl]phenyl]-N-(3-pyridyl)acetamide] | 0.0001 to 10 µM | 0.0001 to 10 µM
COc1cncc(NC(=O)Cc2ccc(-c3cnc(Nc4cnn(C)c4)nc3)cc2)c1 [Compound P-0133, N-(5-methoxy-3-pyridyl)-2-[4-[2-[(1-methylpyrazol-4-yl)amino]pyrimidin-5-yl]phenyl]acetamide] | 0.0001 to 10 µM | 0.0001 to 10 µM
Cn1cc(Nc2ncc(-c3ccc(CC(=O)Nc4ccnc(C(F)(F)F)c4)cc3)cn2)cn1 [Compound P-0134, 2-[4-[2-[(1-methylpyrazol-4-yl)amino]pyrimidin-5-yl]phenyl]-N-[2-(trifluoromethyl)-4-pyridyl]acetamide] | 0.0001 to 10 µM | 0.0001 to 10 µM
